Source: paper PMC10567728, “Targeted imaging of uPAR expression in vivo with cyclic AE105 variants” (Scientific Reports, 2023)
“And” between values parts separate entries of the source, which are not always exact repeats. Identical values can stand only once. Like-named read-outs stand apart in the source and are kept apart here. Positions of bridges follow the written chain, without caps; N, C: chain ends. Non-standard residues stand in square brackets, D forms with d. Residues, ends and D or L forms follow the SMILES beside them. *: point of attachment. DOTA = O=C(O)CN1CCN(CC(=O)O)CCN(CC(=O)*)CCN(CC(=O)O)CC1; Cha = N[C@@H](CC1CCCCC1)C(=O)O

How the values were obtained:
uPAR•uPA interaction = target: T1, uPAR•uPA interaction (Homo sapiens, UniProt Q03405); assay: SPR competition assay of the uPAR•uPA interaction; format: binding; settings: for IC50: competition of uPAR•uPA interaction, 2 nM uPAR, 20 °C, n = 3
T1 construct: Recombinant human uPAR^1–283 was expressed; made in house; host or cells: Drosophila melanogaster S2 cells
T1 sequence (Q03405 23-305): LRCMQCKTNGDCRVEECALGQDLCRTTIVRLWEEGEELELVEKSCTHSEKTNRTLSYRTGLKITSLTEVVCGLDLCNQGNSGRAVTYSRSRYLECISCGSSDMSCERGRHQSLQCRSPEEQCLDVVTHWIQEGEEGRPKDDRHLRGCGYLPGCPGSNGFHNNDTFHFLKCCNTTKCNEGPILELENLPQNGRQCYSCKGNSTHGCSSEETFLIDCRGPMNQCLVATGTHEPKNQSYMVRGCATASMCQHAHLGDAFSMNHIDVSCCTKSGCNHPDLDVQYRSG
Protocol: The IC50-values of antagonistic peptides on the uPAR•uPA interaction were determined with SPR using a Biacore T200™ or Biacore 3000™ instruments (Cytiva) essentially as described[4],[56],[77]. In brief, we immobilized high levels of pro-uPA^S356A (0.1 pmol pro-uPA/mm^2) on a CM5 sensor chip via amine coupling. The experiments were conducted by injecting 2 nM uPAR in presence of a threefold dilution series of a given antagonistic peptide for 300 s with a flow rate of 50 µL/min at 20 °C. The high immobilization levels result in binding conditions that are entirely controlled by mass transport limitations (MTL). Accordingly, the observed association rates (vobs) are directly proportional to the concentrations of binding-active uPAR in solution. To determine the IC50, we also measured a standard curve of uPAR binding (a twofold dilution series of 0.06 to 2 nM uPAR, linear due to MTL). The running buffer was 10 mM HEPES, 150 mM NaCl, 3 mM EDTA, and 0.05% (v/v) surfactant P-20 at pH 7.4, and the regeneration buffer was 0.1 M acetic acid in 0.5 M NaCl.

uPAR [1] = target: T2, uPAR (Homo sapiens, UniProt Q03405); assay: SPR real-time binding kinetics, peptides in solution and immobilised uPAR
T2 construct: Recombinant human uPAR^1–283 was expressed; made in house; host or cells: Drosophila melanogaster S2 cells
T2 sequence (Q03405 23-305): as above
Protocol: The real-time binding kinetics of uPAR•peptide interactions were measured with SPR using a Biacore T200™(Cytiva); essentially as described in[56],[77]. In brief, uPAR was covalently immobilised on a CM5 sensor chip via amine coupling resulting in a surface density of 1157–1581 RU (~ 33–44 fmol/mm^2). The binding kinetics for the peptides to immobilised uPAR were measured using a single cycle protocol. In this setup, peptides were injected as five serial two-fold dilutions with a contact time of 200 s. After the last analyte injection, the dissociation time was set to 1000 s. The sensor chip was regenerated with two consecutive injections of 0.1 M acetic acid in 0.5 M NaCl. All experiments were conducted at 20 °C with a flow rate of 50 µL/min in 10 mM HEPES, 150 mM NaCl, 3 mM EDTA, and 0.05% (v/v) surfactant P-20 at pH 7.4. The kinetic rate constants (kon and koff) were determined by non-linear regression fitting of the curves to the simple bimolecular interaction model (BiacoreT200 Evaluation™ 3.0 software).

uPAR [2] = target: T2, uPAR; assay: Nano-DSF thermal stability of uPAR•peptide complexes; settings: for Tm (apparent melting temperature of uPAR•peptide complex): 15 µM uPAR, 30 µM peptide, PBS pH 7.4, n = 3
Protocol: The thermal stability of the uPAR•peptide complexes was analyzed with Nano-DSF using a Prometheus NT.48™ (Nanotemper). uPAR (15 µM) was mixed with twofold excess of peptide (30 µM) in PBS pH 7.4 and incubated for 15 min at RT to ensure complex formation. Samples containing either 15 µM uPAR or 30 µM of each peptide were included as controls. The samples were loaded into standard capillaries and in triplicates. To unfold the proteins, the samples were exposed to an increasing temperature gradient from 20 to 95 °C with a ramping rate of 1 °C/min. The excitation power was set to 50% (Ex.280 nm) and the fluorescence emission collected at 330 nm and 350 nm. The melting temperatures of the complexes were determined in the PR.ThermControl software (Nanotemper) from the first derivative of the fluorescence ratio (350 nm/330 nm).

[3] = [63Cu]-DOTA labelled peptides, single-cycle SPR
[4] = single cycle SPR, immobilised uPAR, 20 °C
[5] = single cycle SPR, immobilised uPAR, 20 °C, 1:1 model
[6] = single cycle SPR, immobilised uPAR, 20 °C, read-out: kon

Row | SMILES | IC50 (uPAR•uPA interaction) [nM] | koff (uPAR [1]; [4]) [s⁻¹] | Kd (uPAR [1]; [5]) | kon (uPAR [1]; [6]) [M⁻¹ s⁻¹] | Tm (apparent melting temperature of uPAR•peptide complex) (uPAR [2]) | other results
1 | CC(C)C[C@H](NC(=O)[C@H](Cc1ccc(O)cc1)NC(=O)[C@@H](CCCNC(=N)N)NC(=O)[C@@H](CO)NC(=O)[C@H](Cc1ccccc1)NC(=O)[C@H](CC1CCCCC1)NC(=O)[C@H](CC(=O)O)NC(=O)CN1CCN(CC(=O)O)CCN(CC(=O)O)CCN(CC(=O)O)CC1)C(=O)N[C@@H](Cc1c[nH]c2ccccc12)C(=O)N[C@@H](CO)C(=O)O [1b] | 48 ± 2 | 0.00557 ± 1e-05 | 26.9 nM | 207000 ± 1000 | 58.8 °C | IC50 of DOTA-conjugated peptide compared to unconjugated peptide (uPAR•uPA interaction; (1b) vs (1), (8b) vs (8)): four to fivefold higher; Kd (uPAR [1]; [3]): 86.5 nM; koff (uPAR [1]; [3]): 0.0175 ± 0.0003 s⁻¹; kon (uPAR [1]; [3]): 2.02 ± 0.03 105 M-1 s-1; reduction of affinity on DOTA-conjugation (uPAR [1]; real-time binding kinetics, vs unconjugated peptides): 8–11 fold
2 | CC(C)C[C@@H]1NC(=O)[C@H](Cc2ccc(O)cc2)NC(=O)[C@H](NC(=O)[C@@H](CO)NC(=O)[C@H](Cc2ccccc2)NC(=O)[C@H](CC2CCCCC2)NC(=O)[C@H](CC(=O)O)NC(=O)CN2CCN(CC(=O)O)CCN(CC(=O)O)CCN(CC(=O)O)CC2)CSSC[C@@H](C(=O)O)NC(=O)[C@H](Cc2c[nH]c3ccccc23)NC1=O [3b] ({DOTA}-D[Cha]F[dS][dC]YLWC-OH; disulfide 5-9) | 10.9 ± 0.3 | 0.0044 ± 1e-05 | 12.5 nM | 352000 ± 1000 | ~ 70 °C | increase in apparent Tm (uPAR [2]; DOTA-conjugated peptides, compared to (1b)): approximately 11 °C
3 | CC(C)C[C@H](NC(=O)[C@H](Cc1ccc(O)cc1)NC(=O)[C@@H](CCCNC(=N)N)NC(=O)[C@@H](CO)NC(=O)[C@H](Cc1ccccc1)NC(=O)[C@H](CC1CCCCC1)NC(=O)[C@H](CC(=O)O)NC(=O)CNC(=O)CNC(=O)[C@@H](CO)NC(=O)CNC(=O)[C@H](CCC(=O)O)NC(=O)[C@H](CCC(=O)O)NC(=O)CN1CCN(CC(=O)O)CCN(CC(=O)O)CCN(CC(=O)O)CC1)C(=O)N[C@@H](Cc1c[nH]c2ccccc12)C(=O)N[C@@H](CO)C(=O)O [4b] ({DOTA}-EEG[dS]GGD[Cha]F[dS][dR]YLWS-OH) | 32.2 ± 0.9 | 0.00717 ± 1e-05 | 33.6 nM | 213000 ± 400 | 55.6 ± 0.03 °C | 
4 | CC(C)C[C@@H]1NC(=O)[C@H](Cc2ccc(O)cc2)NC(=O)[C@H](NC(=O)[C@@H](CO)NC(=O)[C@H](Cc2ccccc2)NC(=O)[C@H](CC2CCCCC2)NC(=O)[C@H](CC(=O)O)NC(=O)CNC(=O)CNC(=O)[C@@H](CO)NC(=O)CNC(=O)[C@H](CCC(=O)O)NC(=O)[C@H](CCC(=O)O)NC(=O)CN2CCN(CC(=O)O)CCN(CC(=O)O)CCN(CC(=O)O)CC2)CSSC[C@@H](C(N)=O)NC(=O)[C@H](Cc2c[nH]c3ccccc23)NC1=O [11b] ({DOTA}-EEG[dS]GGD[Cha]F[dS][dC]YLWC-NH2; disulfide 11-15) | 7.7 ± 0.2 | 0.003562 ± 3e-06 | 5 nM and 4.97 nM | 717000 ± 1000 |  | Kd (uPAR [1]; [3]): 22.6 nM; koff (uPAR [1]; [3]): 0.0036 ± 1e-05 s⁻¹
5 | CC(C)C[C@H](NC(=O)[C@H](Cc1ccc(O)cc1)NC(=O)[C@@H](CCCNC(=N)N)NC(=O)[C@@H](CO)NC(=O)[C@H](Cc1ccccc1)NC(=O)[C@H](CC1CCCCC1)NC(=O)[C@@H](N)CC(=O)O)C(=O)N[C@@H](Cc1c[nH]c2ccccc12)C(=O)N[C@@H](CO)C(=O)O [compound 1, AE105] | 8.8 ± 0.2 | 0.00396 ± 1e-05 | 2.52 nM | 1.568e+06 ± 5000 |  | 
6 | CC(C)C[C@H](NC(=O)[C@H](Cc1ccc(O)cc1)NC(=O)[C@@H](CCCCN)NC(=O)[C@@H](CO)NC(=O)[C@H](Cc1ccccc1)NC(=O)[C@H](CC1CCCCC1)NC(=O)[C@@H](N)CC(=O)O)C(=O)N[C@@H](Cc1c[nH]c2ccccc12)C(=O)N[C@@H](CO)C(=O)O [compound 2] (H-D[Cha]F[dS][dK]YLWS-OH; N-terminus assumed) | 50.9 ± 2 | 0.0298 ± 0.0001 | 50.2 nM | 594000 ± 3000 |  | 
7 | CC(C)C[C@@H]1NC(=O)[C@H](Cc2ccc(O)cc2)NC(=O)[C@H](NC(=O)[C@@H](CO)NC(=O)[C@H](Cc2ccccc2)NC(=O)[C@H](CC2CCCCC2)NC(=O)[C@@H](N)CC(=O)O)CSSC[C@@H](C(=O)O)NC(=O)[C@H](Cc2c[nH]c3ccccc23)NC1=O [compound 3] (H-D[Cha]F[dS][dC]YLWC-OH; disulfide 5-9; N-terminus assumed) | 6.5 ± 0.3 | 0.00365 ± 1e-05 | 3.32 nM | 1.098e+06 ± 4000 |  | 
8 | CC(C)C[C@H](NC(=O)[C@H](Cc1ccc(O)cc1)NC(=O)[C@@H](CO)NC(=O)[C@@H](CO)NC(=O)[C@H](Cc1ccccc1)NC(=O)[C@H](CC1CCCCC1)NC(=O)[C@H](CC(=O)O)NC(=O)CNC(=O)CNC(=O)[C@@H](CO)NC(=O)CNC(=O)[C@H](CCC(=O)O)NC(=O)[C@@H](N)CCC(=O)O)C(=O)N[C@@H](Cc1c[nH]c2ccccc12)C(=O)N[C@@H](CO)C(=O)O [compound 5] (H-EEG[dS]GGD[Cha]F[dS][dS]YLWS-OH; N-terminus assumed) |  | 0.054 ± 0.0003 |  | 201000 ± 2000 |  | fold decrease in potency (uPAR•uPA interaction; compared to (4)): 7.8 fold
9 | CC(C)C[C@@H]1NC(=O)[C@@H]2CCCN2C(=O)[C@H](NC(=O)[C@@H](CO)NC(=O)[C@H](Cc2ccccc2)NC(=O)[C@H](CC2CCCCC2)NC(=O)[C@H](CC(=O)O)NC(=O)CNC(=O)CNC(=O)[C@@H](CO)NC(=O)CNC(=O)[C@H](CCC(=O)O)NC(=O)[C@@H](N)CCC(=O)O)CSSC[C@@H](C(=O)O)NC(=O)[C@H](Cc2c[nH]c3ccccc23)NC1=O [compound 7] (H-EEG[dS]GGD[Cha]F[dS][dC]PLWC-OH; disulfide 11-15 (inferred); N-terminus assumed) |  |  |  |  |  | KD (uPAR [1]; [5]): N.B
10 | CC(C)C[C@H](NC(=O)[C@H](Cc1ccc(O)cc1)NC(=O)[C@@H](CCCNC(=N)N)NC(=O)[C@@H](CO)NC(=O)[C@H](Cc1ccccc1)NC(=O)[C@H](CC1CCCCC1)NC(=O)[C@@H](N)CC(=O)O)C(=O)N[C@@H](Cc1c[nH]c2ccccc12)C(=O)N[C@@H](CO)C(N)=O [compound 8] | 2.1 ± 0.1 | 0.000998 ± 1e-06 | 0.53 nM | 1.89e+06 ± 3000 |  | 
11 | CC(C)C[C@@H]1NC(=O)[C@H](Cc2ccc(O)cc2)NC(=O)[C@H](NC(=O)[C@@H](CO)NC(=O)[C@H](Cc2ccccc2)NC(=O)[C@H](CC2CCCCC2)NC(=O)[C@@H](N)CC(=O)O)CSSC[C@@H](C(N)=O)NC(=O)[C@H](Cc2c[nH]c3ccccc23)NC1=O [compound 9] (H-D[Cha]F[dS][dC]YLWC-NH2; disulfide 5-9; N-terminus assumed) | 8.9 ± 0.3 | 0.002063 ± 3e-06 | 2.9 nM | 712000 ± 2000 |  | 
12 | CC(C)C[C@@H]1NC(=O)[C@H](Cc2ccc(O)cc2)NC(=O)[C@H](NC(=O)[C@@H](CO)NC(=O)[C@H](Cc2ccccc2)NC(=O)[C@H](CC2CCCCC2)NC(=O)[C@H](CC(=O)O)NC(=O)CNC(=O)CNC(=O)[C@@H](CO)NC(=O)CNC(=O)[C@H](CCC(=O)O)NC(=O)[C@@H](N)CCC(=O)O)CSSC[C@@H](C(N)=O)NC(=O)[C@H](Cc2c[nH]c3ccccc23)NC1=O [compound 11] (H-EEG[dS]GGD[Cha]F[dS][dC]YLWC-NH2; disulfide 11-15; N-terminus assumed) |  | 0.005015 ± 8e-06 |  | 500000 ± 2000 | ~ 65 °C | 
